In brackets after ≈: the same amount, converted by molar mass. Each block holds one compound with its values, some of them ahead of it.
Experiments:
Format in all cases: cell-based
Usutu virus (USUV) = assay: anti-Usutu virus activity (inhibition rate); details: for inhibition at 11 µM / inhibition at 33 µM: Usutu virus
Zika virus (ZIKV) = assay: anti-Zika virus activity (inhibition rate); details: for inhibition at 11 µM / inhibition at 33 µM: Zika virus
[1] = test system: drug resistant strains of Acinetobacter baumannii; assay: anti-drug resistant strains of Acinetobacter baumannii (MIC)
[2] = resistant strain of Acinetobacter baumannii no. 17
[3] = resistant strain of Acinetobacter baumannii no. 18
[4] = resistant strain of Acinetobacter baumannii no. 19
[5] = resistant strain of Acinetobacter baumannii no. 20

SMILES: O=C1[C@@H]2Cc3ccccc3CN2C(c2ccc(O)cc2)N1Nc1ccccc1 (stereo partly drawn) [ZSD-20]
Anti-USUV activity (inhibition rate) (Usutu virus (USUV); Drug concentration 11 μM): − (−: Inactive)
Anti-USUV activity (inhibition rate) (Usutu virus (USUV); Drug concentration 33 μM): + (+: Partial suppression)
Anti-ZIKV activity (inhibition rate) (Zika virus (ZIKV); Drug concentration 11 μM): − (−: Inactive)
Anti-ZIKV activity (inhibition rate) (Zika virus (ZIKV); Drug concentration 33 μM): +++ (+++: Complete suppression)

SMILES: O=C(Nc1ccc([N+](=O)[O-])cc1)C1CCc2ccccc2N1C(=O)O (stereo not drawn) [ZXD-62]
Anti-USUV activity (inhibition rate) (Usutu virus (USUV); Drug concentration 11 μM): − (−: Inactive)
Anti-USUV activity (inhibition rate) (Usutu virus (USUV); Drug concentration 33 μM): + (+: Partial suppression)
Anti-ZIKV activity (inhibition rate) (Zika virus (ZIKV); Drug concentration 11 μM): − (−: Inactive)
Anti-ZIKV activity (inhibition rate) (Zika virus (ZIKV); Drug concentration 33 μM): +++ (+++: Complete suppression)

SMILES: CC1(C)OC[C@]2(C)C(CC[C@@]3(C)[C@H](C[C@H]4N(NS(=O)(=O)c5ccc([N+](=O)[O-])cc5)C(=O)[C@@H]5Cc6ccccc6N54)C(=O)CC[C@@H]32)O1 (stereo partly drawn) [ZDL-41]
Anti-USUV activity (inhibition rate) (Usutu virus (USUV); Drug concentration 11 μM): +++ (+++: Complete suppression)
Anti-ZIKV activity (inhibition rate) (Zika virus (ZIKV); Drug concentration 11 μM): +++ (+++: Complete suppression)

SMILES: O=C1C2CCCC2C(c2ccccc2)N1c1ccccc1 (stereo not drawn) [ZDL-60]
inhibition at 11 µM (Usutu virus (USUV); Drug concentration 11 μM): < 0%
inhibition at 33 µM (Usutu virus (USUV); Drug concentration 33 μM): 0 to 100%
inhibition at 11 µM (Zika virus (ZIKV); Drug concentration 11 μM): < 0%
inhibition at 33 µM (Zika virus (ZIKV); Drug concentration 33 μM): 0 to 100%

SMILES: CC(C)(C)[Si](C)(C)OCc1ccc(C2N(Nc3ccccc3)C(=O)C3CCc4ccccc4N32)cc1 (stereo not drawn) [ZXD-156B]
inhibition at 11 µM (Usutu virus (USUV); Drug concentration 11 μM): > 100%
inhibition at 11 µM (Zika virus (ZIKV); Drug concentration 11 μM): > 100%

MIC [1, 2]: 4 µg/mL (≈ 18.2 µM)
MIC [1, 3]: 4 µg/mL (≈ 18.2 µM)
MIC [1, 4]: 8 µg/mL (≈ 36.5 µM)
MIC [1, 5]: 4 µg/mL (≈ 18.2 µM)
SMILES: O=C(NNc1ccccc1)C1CCCCN1 (stereo not drawn) [ZXD-2-1]

MIC [1, 2]: 2 µg/mL (≈ 8.96 µM)
MIC [1, 3]: 2 µg/mL (≈ 8.96 µM)
MIC [1, 4]: 2 µg/mL (≈ 8.96 µM)
MIC [1, 5]: 1 µg/mL (≈ 4.48 µM)
SMILES: O=C(NNc1ccc(F)cc1)[C@H]1CCNC1 [ZBM-19]

SMILES: O=C1[C@@H]2CCc3ccccc3N2C(c2ccc([N+](=O)[O-])c(O)c2)N1Nc1ccccc1 (stereo partly drawn) [ZXD-95]
inhibition at 11 µM (Usutu virus (USUV); Drug concentration 11 μM): < 0%
inhibition at 33 µM (Usutu virus (USUV); Drug concentration 33 μM): 0 to 100%
inhibition at 11 µM (Zika virus (ZIKV); Drug concentration 11 μM): 0 to 100%

SMILES: CC(C)(C)[Si](C)(C)Oc1ccc(C2N(Nc3ccccc3)C(=O)C3CCc4ccccc4N32)cc1 (stereo not drawn) [ZXD-131B]
inhibition at 11 µM (Usutu virus (USUV); Drug concentration 11 μM): 0 to 100%
inhibition at 11 µM (Zika virus (ZIKV); Drug concentration 11 μM): < 0%
inhibition at 33 µM (Zika virus (ZIKV); Drug concentration 33 μM): < 0%

SMILES: COc1cc([C@H]2N(Nc3ccccc3)C(=O)[C@@H]3Cc4ccccc4N32)ccc1O [ZDL-21]
inhibition at 11 µM (Usutu virus (USUV); Drug concentration 11 μM): < 0%
inhibition at 33 µM (Usutu virus (USUV); Drug concentration 33 μM): < 0%
inhibition at 11 µM (Zika virus (ZIKV); Drug concentration 11 μM): < 0%
inhibition at 33 µM (Zika virus (ZIKV); Drug concentration 33 μM): 0 to 100%

SMILES: O=C1[C@@H]2Cc3ccccc3CN2C(c2ccc([N+](=O)[O-])cc2)N1Nc1ccccc1 (stereo partly drawn) [ZSD-18]
inhibition at 11 µM (Usutu virus (USUV); Drug concentration 11 μM): < 0%
inhibition at 33 µM (Usutu virus (USUV); Drug concentration 33 μM): 0 to 100%
inhibition at 11 µM (Zika virus (ZIKV); Drug concentration 11 μM): < 0%
inhibition at 33 µM (Zika virus (ZIKV); Drug concentration 33 μM): 0 to 100%

SMILES: O=C1[C@@H]2Cc3ccccc3CN2C(c2ccc(O)c(O)c2)N1c1ccc([N+](=O)[O-])cc1 (stereo partly drawn) [ZSD-11]
inhibition at 11 µM (Usutu virus (USUV); Drug concentration 11 μM): < 0%
inhibition at 33 µM (Usutu virus (USUV); Drug concentration 33 μM): 0 to 100%
inhibition at 11 µM (Zika virus (ZIKV); Drug concentration 11 μM): < 0%
inhibition at 33 µM (Zika virus (ZIKV); Drug concentration 33 μM): > 100%

SMILES: O=C1C2CCc3ccccc3N2[C@@H](c2cc3ccccc3s2)N1Nc1ccccc1 (stereo partly drawn) [ZXD-178B]
inhibition at 11 µM (Usutu virus (USUV); Drug concentration 11 μM): 0 to 100%
inhibition at 11 µM (Zika virus (ZIKV); Drug concentration 11 μM): > 100%

SMILES: COc1ccc(CC2N(Nc3ccccc3)C(=O)C3CCc4ccccc4N32)cc1OC (stereo not drawn) [ZXD-140]
inhibition at 11 µM (Usutu virus (USUV); Drug concentration 11 μM): < 0%
inhibition at 33 µM (Usutu virus (USUV); Drug concentration 33 μM): > 100%
inhibition at 11 µM (Zika virus (ZIKV); Drug concentration 11 μM): 0 to 100%

MIC [1, 2]: 4 µg/mL (≈ 19.9 µM)
MIC [1, 3]: 4 µg/mL (≈ 19.9 µM)
MIC [1, 4]: 4 µg/mL (≈ 19.9 µM)
MIC [1, 5]: 1 µg/mL (≈ 4.97 µM)
SMILES: O=C(NNc1ccccc1)c1ccc[nH]1 [ZFD-42]

SMILES: CC1(C)OB(c2ccc(C3N(Nc4ccccc4)C(=O)[C@@H]4Cc5ccccc5CN34)cc2)OC1(C)C (stereo partly drawn) [ZSD-32]
inhibition at 11 µM (Usutu virus (USUV); Drug concentration 11 μM): < 0%
inhibition at 33 µM (Usutu virus (USUV); Drug concentration 33 μM): 0 to 100%
inhibition at 11 µM (Zika virus (ZIKV); Drug concentration 11 μM): < 0%
inhibition at 33 µM (Zika virus (ZIKV); Drug concentration 33 μM): < 0%

MIC [1, 2]: 1 µg/mL (≈ 3.69 µM)
MIC [1, 3]: 2 µg/mL (≈ 7.37 µM)
MIC [1, 4]: 1 µg/mL (≈ 3.69 µM)
MIC [1, 5]: 1 µg/mL (≈ 3.69 µM)
SMILES: O=C(NNc1ccc(F)cc1)C1CNc2ccccc21 (stereo not drawn) [ZBM-11]

MIC [1, 2]: 4 µg/mL (≈ 15.8 µM)
MIC [1, 3]: 4 µg/mL (≈ 15.8 µM)
MIC [1, 4]: 4 µg/mL (≈ 15.8 µM)
MIC [1, 5]: 2 µg/mL (≈ 7.9 µM)
SMILES: O=C(NNc1ccccc1)[C@@H]1Cc2ccccc2N1 [ZDL-101]

MIC [1, 2]: 2 µg/mL (≈ 7.48 µM)
MIC [1, 3]: 8 µg/mL (≈ 29.9 µM)
MIC [1, 4]: 4 µg/mL (≈ 15 µM)
MIC [1, 5]: 4 µg/mL (≈ 15 µM)
SMILES: O=C(NNc1ccccc1)[C@@H]1Cc2ccccc2CN1 [ZSD-16]

SMILES: O=C1[C@@H]2Cc3ccccc3CN2C(Cc2ccc(O)c(O)c2)N1Nc1ccccc1 (stereo partly drawn) [ZSD-36]
Anti-USUV activity (inhibition rate) (Usutu virus (USUV); Drug concentration 11 μM): − (−: Inactive)
Anti-USUV activity (inhibition rate) (Usutu virus (USUV); Drug concentration 33 μM): + (+: Partial suppression)
Anti-ZIKV activity (inhibition rate) (Zika virus (ZIKV); Drug concentration 11 μM): − (−: Inactive)
Anti-ZIKV activity (inhibition rate) (Zika virus (ZIKV); Drug concentration 33 μM): − (−: Inactive)

SMILES: O=C1C2CCCC2C(c2ccc(Cl)cc2)N1c1ccccc1 (stereo not drawn) [ZDL-62]
inhibition at 11 µM (Usutu virus (USUV); Drug concentration 11 μM): < 0%
inhibition at 33 µM (Usutu virus (USUV); Drug concentration 33 μM): > 100%
inhibition at 11 µM (Zika virus (ZIKV); Drug concentration 11 μM): < 0%
inhibition at 33 µM (Zika virus (ZIKV); Drug concentration 33 μM): 0 to 100%

SMILES: O=C1C2Cc3ccccc3CN2C(c2ccc(O)c(O)c2)N1Nc1ccccc1 (stereo not drawn) [ZSD-30A]
Anti-USUV activity (inhibition rate) (Usutu virus (USUV); Drug concentration 11 μM): − (−: Inactive)
Anti-USUV activity (inhibition rate) (Usutu virus (USUV); Drug concentration 33 μM): +++ (+++: Complete suppression)
Anti-ZIKV activity (inhibition rate) (Zika virus (ZIKV); Drug concentration 11 μM): − (−: Inactive)
Anti-ZIKV activity (inhibition rate) (Zika virus (ZIKV); Drug concentration 33 μM): − (−: Inactive)

MIC [1, 2]: > 64 µg/mL
MIC [1, 3]: 8 µg/mL (≈ 23.2 µM)
MIC [1, 4]: 8 µg/mL (≈ 23.2 µM)
MIC [1, 5]: 8 µg/mL (≈ 23.2 µM)
SMILES: O=C1C2Cc3ccccc3CN2C(c2ccco2)N1Nc1ccccc1 (stereo not drawn) [ZSD-28B]

SMILES: O=C1C2CCc3ccccc3N2C(c2ccc(O)cc2)N1Nc1ccccc1 (single isomer, unassigned) [ZXD-86B]
Anti-USUV activity (inhibition rate) (Usutu virus (USUV); Drug concentration 11 μM): +++ (+++: Complete suppression)
Anti-USUV activity (inhibition rate) (Usutu virus (USUV); Drug concentration 33 μM): +++ (+++: Complete suppression)
Anti-ZIKV activity (inhibition rate) (Zika virus (ZIKV); Drug concentration 11 μM): + (+: Partial suppression)
Anti-ZIKV activity (inhibition rate) (Zika virus (ZIKV); Drug concentration 33 μM): +++ (+++: Complete suppression)

— patent publication US20220235057A1, “CYCLIC FORMYL AND CYCLIC KETONE COMPOUNDS, PREPARATION METHOD THEREFOR, AND PHARMACEUTICAL USE” (priority 2019, published 2022)
